Patent publication US4593092A, “Class of spiro-linked pyrrolidine-2,5-diones” (Kyorin Pharmaceutical Co., Ltd., priority 1983, dated 1986)
Read-outs that look alike come from different tables or passages of the source.

Assays:
[1] = target: T1, aldose reductase (Rattus norvegicus, UniProt P07943); test: Inhibitory activity on aldose reductase in vitro; type: biochemical; conditions: partially purified enzyme from rat lens
T1 construct: partially purified enzyme from rat lens; from tissue; host or cells: rat lens
From the text: (§1) Aldose reductase preparation used in this test was partially purified enzyme from rat lens.

[2] = target: T1, aldose reductase; test: Inhibitory activity on aldose reductase in vivo (serum of orally dosed rats added to the aldose reductase assay); conditions: oral, 0.5 ml added to assay
Description: as §1
In order to estimate whether the compounds are available for inhibiting the enzyme in vivo, following preliminary test was carried out.
2 and 5 hours later, blood samples were taken from the rats. A 0.5 ml of serum, instead of the compound, was added to the assay system described in Experiment 1.

[3] = system: pentylenetetrazole convulsion; test: Anti-convulsion test (pentylenetetrazole convulsion); type: in vivo; conditions: ICR mice; Example 2 orally at 50, 200, 500 and 800 mg/kg; pentylenetetrazole 100 mg/kg i.p. 2 hours later
Description: Mice (ICR stain) were administered orally with the compound of Example 2 at various doses of 50, 200, 500 and 800 mg/kg and injected with pentylenetetrazole at a dose of 100 mg/kg intraperitoneally 2 hours later.

[4] = Acute toxicity on mice, oral; conditions: mouse, in vivo
Description: Acute toxicity was tested by oral administration with the compounds of this invention in fasted mice (ICR stain).

[5] = serum taken 2 hr after administration, read-out: Inhibition % on aldose reductase in vivo, 2 hr after administration
[6] = serum taken 5 hr after administration, read-out: Inhibition % on aldose reductase in vivo, 5 hr after administration

SMILES	IC50 [1]	inhibition at 25 mg/kg [2, 5]	inhibition at 25 mg/kg [2, 6]	anti-convulsion activity (suppressive effect on pentylenetetrazole convulsion) [3]	LD50 ([4]; oral, fasted ICR mice)	LD50 ([4]; po)
O=C1CC2(C(=O)N1)C(=O)N1CCCc3cccc2c31 (stereo not shown) [Example 1, 5',6'-Dihydrospiro[pyrrolidine-3,1'-[4H]pyrrolo[3,2,1-ij]quinoline]-2,2',5(1'H)-trione]	6 µM	61.2%	49.8%			
O=C1CC2(C(=O)N1)C(=O)N1CCCc3cc(Cl)cc2c31 (stereo not shown) [Example 2, 8'-Chloro-5',6'-dihydrospiro[pyrrolidine-3,1'-[4H]pyrrolo[3,2,1-ij]quinoline]-2,2',5(1'H)-trione]	0.4 µM	71.7%	68.5%	did not show any suppressive effect		
CC1CCc2cccc3c2N1C(=O)C31CC(=O)NC1=O (stereo not shown) [Example 3]	9 µM	53.3%	42.6%			
CC1CCc2cc(Cl)cc3c2N1C(=O)C31CC(=O)NC1=O (stereo not shown) [Example 4]	0.35 µM	71.5%	70.2%			
O=C1CC2(C(=O)N1)C(=O)N1CCOc3cccc2c31 (stereo not shown) [Example 5]	5 µM	52.3%	47.6%			
O=C1CC2(C(=O)N1)C(=O)N1c3ccccc3Sc3cccc2c31 (stereo not shown) [Example 6, Spiro[pyrrolidine-3,2'-pyrrolo[3,2,1-kl]phenothiazine]-1',2,5(2'H)-trione]	0.35 µM	11.8%	13.4%		> 2000 mg/kg	
Cc1cc2c3c(c1)C1(CC(=O)NC1=O)C(=O)N3CCC2 (stereo not shown) [Example 7, 5',6'-Dihydro-8'-methylspiro[pyrrolidine-3,1'-[4H]pyrrolo[3,2,1-ij]quinoline]-2,2',5(1'H)-trione]	2 µM	48.4%	33.8%			
O=C1CC2(C(=O)N1)C(=O)N1CCOc3cc(Cl)cc2c31 (stereo not shown) [Example 8, 8'-Chloro-2',3'-dihydrospiro[pyrrolidine-3,6'-pyrrolo[1,2,3-de][1,4]benzoxazine]-2,5,5'(6'H9-trione]	0.6 µM	62.5%	61.4%			> 2000 mg/kg
O=C1CC2(C(=O)N1)C(=O)N1CCSc3cccc2c31 (stereo not shown) [Example 11]	2 µM	72.3%	71.3%			
O=C1CC2(C(=O)N1)C(=O)N1CCOc3c(Cl)ccc2c31 (stereo not shown) [Example 12]	1.5 µM	72.3%	73.9%			> 2000 mg/kg
O=C1CC2(C(=O)N1)C(=O)N1CCOc3c(Cl)c(Cl)cc2c31 (stereo not shown) [Example 13]	0.2 µM	78.2%	81.2%			> 2000 mg/kg
O=C1CC2(C(=O)N1)C(=O)N1CCOc3cc(F)cc2c31 (stereo not shown) [Example 14]	0.7 µM	75.1%	75.8%			> 1000 mg/kg
O=C1CC2(C(=O)N1)C(=O)N1CCOc3c(F)c(F)cc2c31 (stereo not shown) [Example 15]	0.7 µM	74.9%	75.2%			
Cc1cc2c3c(c1)C1(CC(=O)NC1=O)C(=O)N3CCO2 (stereo not shown) [Example 16]	2.5 µM					> 2000 mg/kg
COc1cc2c3c(c1)C1(CC(=O)NC1=O)C(=O)N3CCO2 (stereo not shown) [Example 17]	35 µM					
O=C1NC(=O)[C@@]2(CCOc3ccc(F)cc32)N1 [Sorbinil, (4S)2,3-dihydro-6-fluorospiro[4H--1benzopyran-4,4 imidazolidine2',5dione, reference compound]		79.8%	79.5%	dose-dependent protection against the tonic convulsion		
O=C1NC(=O)C(c2ccccc2)(c2ccccc2)N1 [phenytoin]				dose-dependent protection against the tonic convulsion		
